Source: patent US20200022963A1, “PHARMACEUTICAL COMPOSITION COMPRISING BETAHISTINE” (Otolanum AG, priority 2017, published 2020)
Like-named read-outs stand apart in the source and are kept apart here.

Experiments:
[1] = cited from earlier work; for Tmax: 2-PAA after oral betahistine
[2] = Pharmacokinetic profile after single oral, intranasal and intravenous betahistine in beagle dogs, Example 5; assay type: in vivo; conditions: beagle, dog, in vivo
Experimental: In this study, the pharmacokinetic profile of betahistine was evaluated after a single dose administration of betahistine in male and female beagle dogs (age 5-7 months; weight of 5-11 kg, within a range of 3 kg for each sex) for three routes of administration: oral, intranasal, and intravenous.
On Day 1 of the study, betahistine (BH) was delivered orally at a dose of 12 mg/kg, 24 mg/kg, or 48 mg/kg. Each treatment group comprised 8 animals (4 males and 4 females). For pharmacokinetic assessment, plasma samples were collected prior to dosing, and then at 5, 10, 20 and 30 min, 1, 2, 3, 6, 24 hours after dosing.
On Day 8 of the study, the animals that received oral BH at a dose of 12 mg/kg were administered the test betahistine composition intranasally at a dose of 40 mg betahistine dihydrochloride; the animals that received oral BH at a dose of 24 mg/kg were administered the test betahistine composition intranasally at a dose of 80 mg betahistine dihydrochloride; and the animals that received oral BH at a dose of 48 mg/kg were administered the test betahistine composition intranasally at a dose of 120 mg betahistine dihydrochloride. The test betahistine composition was delivered intranasally in a single dose via an Aptar nasal spray pump device at a total dose level of 40, 80 and 120 mg of betahistine dihydrochloride. Plasma samples were collected prior to dosing, and then at 5, 10, 20 and 30 min, 1, 2, 3, 6, 24 hours after dosing.
On Day 15 of the study, the animals that received oral BH at a dose of 12 mg/kg and the test betahistine composition intranasally at a dose of 40 mg betahistine dihydrochloride were administered a bolus intravenous injection of betahistine at a dose of 0.44 mg/kg. Plasma samples were collected prior to dosing, and then at 5, 10, 20 and 30 min, 1, 2, 3, 6, 24 hours after dosing.
Betahistine 13CD3 dihydrochloride and 2-pyridylacetic acid-D4 hydrochloride were used as respective internal standards. The calibration range for betahistine was 0.05-250 ng/mL and for 2-PAA 2.00-3000 ng/mL using a plasma sample volume of 0.50 mL.
For determination of betahistine, the method involved liquid-liquid extraction, for 2-PAA, the method involved protein precipitation. Plasma samples were prepared for betahistine by extraction under basic conditions with an organic solvent, then the organic phase was dried, reconstituted and transferred for LC/MS-MS analysis. […] Sample analysis was performed using reversed phase chromatography.

[3] = female, inhaled or intranasal, 6 mg/kg
[4] = female, inhaled or intranasal, 13 mg/kg
[5] = female, inhaled or intranasal, 17.7 mg/kg
[6] = male, inhaled or intranasal, 5 mg/kg
[7] = male, inhaled or intranasal, 9.8 mg/kg
[8] = male, inhaled or intranasal, 15.8 mg/kg

O=C(O)Cc1ccccn1 [2-PAA, 2-pyridylacetic acid]
peak concentration ([1]; human, 2-PAA after oral betahistine 16 mg, Val et al.): 522 ng/mL
Tmax ([1]; human, Chen et al. (2003)): 1 h
Tmax ([1]; human, Moorthy et al.): 1.5 h
pharmacological activity ([1]; metabolite formed by monoamine oxidase): no pharmacological activity
AUC(0-inf) [2, 3]: 19000 ng·h/mL
AUC(0-t)/D [2, 3]: 3170 ± 812 hr*ng/mL/(mg/kg)
Cmax [2, 3]: 5570 ng/mL
Cmax/D [2, 3]: 928 ng/mL/(mg/kg)
Tmax [2, 3]: 0.75 h
half-life [2, 3]: 2.66 h
AUC(0-t) ([2]; female, inhaled or intranasal, 6 mg/kg, AUC(0-6)): 14800 ng·h/mL
AUC(0-t) ([2]; female, inhaled or intranasal, 6 mg/kg, AUC(0-t)): 19000 ng·h/mL
AUC(0-inf) [2, 4]: 25300 ng·h/mL
AUC(0-t)/D [2, 4]: 1940 ± 838 hr*ng/mL/(mg/kg)
Cmax [2, 4]: 7030 ng/mL
Cmax/D [2, 4]: 541 ng/mL/(mg/kg)
Tmax [2, 4]: 1 h
half-life [2, 4]: 2.97 h
AUC(0-t) ([2]; female, inhaled or intranasal, 13 mg/kg, AUC(0-6)): 19300 ng·h/mL
AUC(0-t) ([2]; female, inhaled or intranasal, 13 mg/kg, AUC(0-t)): 25200 ng·h/mL
AUC(0-6) [2, 5]: 10600 ng·h/mL
AUC(0-inf) [2, 5]: 14100 ng·h/mL
AUC(0-t)/D [2, 5]: 790 ± 307 hr*ng/mL/(mg/kg)
Cmax [2, 5]: 3810 ng/mL
Cmax/D [2, 5]: 215 ng/mL/(mg/kg)
T1/2 [2, 5]: 3.46 h
AUC(0-t) ([2]; female, inhaled or intranasal, 17.7 mg/kg, AUC(0-t)): 14000 ng·h/mL
AUC(0-6) ([2]; female, iv, 0.44 mg/kg): 1540 ± 101 ng·h/mL
AUC(0-inf) ([2]; female, iv, 0.44 mg/kg): 1860 ± 188 ng·h/mL
AUC(0-t) ([2]; female, iv, 0.44 mg/kg): 1830 ± 209 ng·h/mL
AUC(0-t)/D ([2]; female, iv, 0.44 mg/kg): 4160 ± 475 hr*ng/mL/(mg/kg)
Cmax ([2]; female, iv, 0.44 mg/kg): 722 ± 75.3 ng/mL
Cmax/D ([2]; female, iv, 0.44 mg/kg): 1640 ± 171 ng/mL/(mg/kg)
T1/2 ([2]; female, iv, 0.44 mg/kg): 2.78 h
Tmax (median) ([2]; female, iv, 0.44 mg/kg): 0.18 h
AUC(0-6) ([2]; female, po, 12 mg/kg): 41300 ng·h/mL
AUC(0-int) ([2]; female, po, 12 mg/kg): 57200 ± 11300 ng·h/mL
AUC(0-t) ([2]; female, po, 12 mg/kg): 57200 ± 11300 ng·h/mL
AUC(0-t)/D ([2]; female, po, 12 mg/kg): 4760 ± 940 hr*ng/mL/(mg/kg)
Cmax ([2]; female, po, 12 mg/kg): 14500 ng/mL
Cmax/D ([2]; female, po, 12 mg/kg): 1210 ng/mL/(mg/kg)
T1/2 ([2]; female, po, 12 mg/kg): 2.12 ± 0.110 h
AUC(0-6) ([2]; female, po, 24 mg/kg): 69300 ng·h/mL
AUC(0-int) ([2]; female, po, 24 mg/kg): 110000 ± 14300 ng·h/mL
AUC(0-t) ([2]; female, po, 24 mg/kg): 110000 ± 14300 ng·h/mL
AUC(0-t)/D ([2]; female, po, 24 mg/kg): 4590 ± 594 hr*ng/mL/(mg/kg)
Cmax ([2]; female, po, 24 mg/kg): 21300 ng/mL
Cmax/D ([2]; female, po, 24 mg/kg): 885 ng/mL/(mg/kg)
T1/2 ([2]; female, po, 24 mg/kg): 2.14 ± 0.176 h
Tmax (median) ([2]; female, po, 24 mg/kg): 2 h
AUC(0-6) ([2]; female, po, 48 mg/kg): 144000 ng·h/mL
AUC(0-int) ([2]; female, po, 48 mg/kg): 208000 ± 35000 ng·h/mL
AUC(0-t) ([2]; female, po, 48 mg/kg): 237000 ± 63500 ng·h/mL
AUC(0-t)/D ([2]; female, po, 48 mg/kg): 4930 ± 1320 hr*ng/mL/(mg/kg)
Cmax ([2]; female, po, 48 mg/kg): 37500 ng/mL
Cmax/D ([2]; female, po, 48 mg/kg): 781 ng/mL/(mg/kg)
T1/2 ([2]; female, po, 48 mg/kg): 2.24 ± 0.170 h
Tmax (median) ([2]; female, po, 48 mg/kg): 2 h
AUC(0-6) [2, 6]: 9440 ng·h/mL
AUC(0-inf) [2, 6]: 12200 ng·h/mL
AUC(0-t) [2, 6]: 12200 ng·h/mL
AUC(0-t)/D [2, 6]: 2440 ± 2160 hr*ng/mL/(mg/kg)
Cmax [2, 6]: 3480 ng/mL
Cmax/D [2, 6]: 695 ng/mL/(mg/kg)
T1/2 [2, 6]: 2.96 h
Tmax (median) [2, 6]: 0.5 h
AUC(0-inf) [2, 7]: 10400 ng·h/mL
AUC(0-t)/D [2, 7]: 1060 ± 368 hr*ng/mL/(mg/kg)
Cmax [2, 7]: 3320 ng/mL
Cmax/D [2, 7]: 339 ng/mL/(mg/kg)
Tmax [2, 7]: 1 h
half-life [2, 7]: 2.86 h
AUC(0-t) ([2]; male, inhaled or intranasal, 9.8 mg/kg, AUC(0-6)): 8450 ng·h/mL
AUC(0-t) ([2]; male, inhaled or intranasal, 9.8 mg/kg, AUC(0-t)): 10400 ng·h/mL
AUC(0-inf) [2, 8]: 12800 ng·h/mL
AUC(0-t)/D [2, 8]: 806 ± 197 hr*ng/mL/(mg/kg)
Cmax [2, 8]: 3930 ng/mL
Cmax/D [2, 8]: 249 ng/mL/(mg/kg)
Tmax [2, 8]: 1 h
half-life [2, 8]: 2.87 h
AUC(0-t) ([2]; male, inhaled or intranasal, 15.8 mg/kg, AUC(0-6)): 10200 ng·h/mL
AUC(0-t) ([2]; male, inhaled or intranasal, 15.8 mg/kg, AUC(0-t)): 12700 ng·h/mL
AUC(0-6) ([2]; male, iv, 0.44 mg/kg): 1450 ± 388 ng·h/mL
AUC(0-inf) ([2]; male, iv, 0.44 mg/kg): 1760 ± 642 ng·h/mL
AUC(0-t) ([2]; male, iv, 0.44 mg/kg): 1740 ± 641 ng·h/mL
AUC(0-t)/D ([2]; male, iv, 0.44 mg/kg): 3960 ± 1460 hr*ng/mL/(mg/kg)
Cmax ([2]; male, iv, 0.44 mg/kg): 736 ± 53.5 ng/mL
Cmax/D ([2]; male, iv, 0.44 mg/kg): 1670 ± 121 ng/mL/(mg/kg)
T1/2 ([2]; male, iv, 0.44 mg/kg): 2.59 h
Tmax (median) ([2]; male, iv, 0.44 mg/kg): 0.13 h
AUC(0-6) ([2]; male, po, 12 mg/kg): 37300 ng·h/mL
AUC(0-int) ([2]; male, po, 12 mg/kg): 50500 ± 21100 ng·h/mL
AUC(0-t) ([2]; male, po, 12 mg/kg): 50500 ± 21100 ng·h/mL
AUC(0-t)/D ([2]; male, po, 12 mg/kg): 4210 ± 1760 hr*ng/mL/(mg/kg)
Cmax ([2]; male, po, 12 mg/kg): 12700 ng/mL
Cmax/D ([2]; male, po, 12 mg/kg): 1060 ng/mL/(mg/kg)
T1/2 ([2]; male, po, 12 mg/kg): 2.21 ± 0.160 h
AUC(0-int) ([2]; male, po, 24 mg/kg): 107000 ± 28200 ng·h/mL
AUC(0-t)/D ([2]; male, po, 24 mg/kg): 4460 ± 1180 hr*ng/mL/(mg/kg)
Cmax ([2]; male, po, 24 mg/kg): 26400 ng/mL
Cmax/D ([2]; male, po, 24 mg/kg): 1100 ng/mL/(mg/kg)
T1/2 ([2]; male, po, 24 mg/kg): 2.04 ± 0.107 h
Tmax ([2]; male, po, 24 mg/kg): 1.5 h
AUC(0-t) ([2]; male, po, 24 mg/kg, AUC(0-6)): 76400 ng·h/mL
AUC(0-t) ([2]; male, po, 24 mg/kg, AUC(0-t)): 107000 ± 28200 ng·h/mL
AUC(0-6) ([2]; male, po, 48 mg/kg): 178000 ng·h/mL
AUC(0-int) ([2]; male, po, 48 mg/kg): 286000 ± 39300 ng·h/mL
AUC(0-t) ([2]; male, po, 48 mg/kg): 286000 ± 39200 ng·h/mL
AUC(0-t)/D ([2]; male, po, 48 mg/kg): 5950 ± 817 hr*ng/mL/(mg/kg)
Cmax ([2]; male, po, 48 mg/kg): 50900 ng/mL
Cmax/D ([2]; male, po, 48 mg/kg): 1060 ng/mL/(mg/kg)
T1/2 ([2]; male, po, 48 mg/kg): 2.10 ± 0.181 h
Tmax (median) ([2]; male, po, 48 mg/kg): 2 h
